Consider 32 compounds from PMC7587356, “High-Throughput Screening for Inhibitors of the SARS-CoV-2 Protease Using a FRET-Biosensor” (Molecules, 2020).

This test has as its target SARS-CoV-2 3CLpro (Severe acute respiratory syndrome coronavirus 2, UniProt P0DTD1). Briefly: biochemical. Format: biochemical. The arrangement: Replicate_1 / Replicate_2 / mean / mean (LOPAC_screen_w_protease): unit not given here. As to conditions: for inhibition at 5 µM: 4 h.
Where [1] appears, read: LOPAC1280 primary screen with protease, 5 µM compound, replicate 1, read-out: Replicate_1 (LOPAC_screen_w_protease).
[2] abbreviates: LOPAC1280 primary screen with protease, 5 µM compound, replicate 2, read-out: Replicate_2 (LOPAC_screen_w_protease).
Setting [3] is: LOPAC1280 primary screen with protease, 5 µM compound, mean of the two replicates.
The mark [4] stands for this setting: sheet LOPAC_screen_w_protease, LOPAC1280 primary screen at 5 µM, with protease, mean of the two replicates.
[5] abbreviates: sheet LOPAC_screen_w_protease, LOPAC1280 primary screen at 5 µM, with protease, replicate 1.
[6] abbreviates: sheet LOPAC_screen_w_protease, LOPAC1280 primary screen at 5 µM, with protease, replicate 2.
[7] abbreviates: sheet LOPAC_screen_w_protease, primary screen with protease, 5 µM, mean of two replicates.
Where [8] appears, read: sheet LOPAC_screen_w_protease, primary screen with protease, 5 µM, replicate 1.
[9] abbreviates: sheet LOPAC_screen_w_protease, primary screen with protease, 5 µM, replicate 2.
The mark [10] stands for this setting: sheet LOPAC_screen_w_protease, primary screen with protease, compound at 5 µM, mean of two replicates.
[11] abbreviates: sheet LOPAC_screen_w_protease, primary screen with protease, compound at 5 µM, replicate 1.
Setting [12] is: sheet LOPAC_screen_w_protease, primary screen with protease, compound at 5 µM, replicate 2.
The mark [13] stands for this setting: sheet LOPAC_screen_w_protease, LOPAC1280 at 5 µM, mean of two replicates.
[14] abbreviates: sheet LOPAC_screen_w_protease, LOPAC1280 at 5 µM, replicate 1.
[15] abbreviates: sheet LOPAC_screen_w_protease, LOPAC1280 at 5 µM, replicate 2.
[16] abbreviates: LOPAC1280 primary screen with protease, 5 µM compound, replicate 1.
The mark [17] stands for this setting: LOPAC1280 primary screen with protease, 5 µM compound, replicate 2.
Setting [18] is: LOPAC1280 primary screen with protease, 5 µM compound, mean of two replicates.
Setting [19] is: sheet LOPAC_screen_w_protease, primary screen of LOPAC1280 at 5 µM with protease, mean of the two replicates.
Setting [20] is: sheet LOPAC_screen_w_protease, primary screen of LOPAC1280 at 5 µM with protease, replicate 1.
Setting [21] is: sheet LOPAC_screen_w_protease, primary screen of LOPAC1280 at 5 µM with protease, replicate 2.

Counter-ions that a name gives are not always drawn. Like-named read-outs stand apart in the source and are kept apart here.

As for `COc1cc(-c2ccc(=O)[nH]n2)ccc1OC(F)F` [Zardaverine], the inhibition at 5 µM runs as follows: under setting [1], 2.27%; under setting [2], 1.55%. The “mean (LOPAC_screen_w_protease)” value under setting [3] came to 1.91.

Consider `C=CC1=C(C)c2cc3[nH]c(cc4nc(cc5[nH]c(cc1n2)c(C)c5CCC(=O)O)C(CCC(=O)O)=C4C)c(C)c3C=C` [Protoporphyrin IX disodium], for which the inhibition at 5 µM reads like this: (read-out: Replicate_1) 2.66%; (read-out: Replicate_2) 2.42%; (read-out: mean) 2.54%.

Consider `O=[N+]([O-])c1ccc(O[C@@H]2O[C@H](CO)[C@@H](O)[C@H](O)[C@H]2F)c([N+](=O)[O-])c1`, for which the mean under setting [4] is 0.5921. The same compound gave a Replicate_1 under setting [5] of 1.883. This compound also gave a Replicate_2 under setting [6] of -0.6983.

On to `CC(C)Oc1cccnc1N(C)C1CCN(Cc2ccccc2)CC1.O=C(O)/C=C\C(=O)O` [U-101958 maleate], for which, under setting [7], the mean is on record as 0.02682. In addition, the Replicate_1 under setting [8] is listed as 1.919. For the same compound, under setting [9], the Replicate_2 is given as -1.865.

In the case of `Cc1nc2n(c(=O)c1CCN1CCC(c3noc4cc(F)ccc34)CC1)CCCC2` [Risperidone], the inhibition at 5 µM worked out at 0.962% (sheet LOPAC_screen_w_protease, LOPAC1280 at 5 µM, mean of two replicates, read-out: mean); 1.3% (sheet LOPAC_screen_w_protease, LOPAC1280 at 5 µM, replicate 1, read-out: Replicate_1); 0.627% (sheet LOPAC_screen_w_protease, LOPAC1280 at 5 µM, replicate 2, read-out: Replicate_2).

`COc1cc(/C=C(\C#N)C(=O)c2ccc(O)c(O)c2)cc(I)c1O` [I-OMe-Tyrphostin AG 538]: under setting [10], the mean is on record as 2.606. Further, the Replicate_1 under setting [11] amounted to 2.231. This compound also returned a Replicate_2 under setting [12] of 2.982.

Under setting [10], `N.N.O=C([O-])C1(C(=O)[O-])CCC1.[Pt+2]` [Carboplatin] displayed a mean of 2.889. The compound also showed a Replicate_1 under setting [11] of 1.772. This compound had a Replicate_2 under setting [12] of 4.006.

For `NCC(O)(CS(=O)(=O)O)c1ccc(Cl)cc1` (centres unmarked) [2-Hydroxysaclofen], under setting [4], the mean turned out to be 0.8279. In addition, the Replicate_2 under setting [6] is reported as -0.8627.

The compound `Cl.NCC(O)C1CCCCCCC1` (centres unmarked) yielded a mean under setting [13] of 1.1388. This compound also gave a Replicate_1 under setting [14] of 2.0547. The Replicate_2 under setting [15] is reported as 0.2229.

As to `COc1ccc2[nH]cc(CCN)c2c1.Cl` [O-Methylserotonin hydrochloride], the “mean (LOPAC_screen_w_protease)” value under setting [3] is 2.11. For the same compound, under setting [16], the “Replicate_1 (LOPAC_screen_w_protease)” value is 3.3171. Also, the “Replicate_2 (LOPAC_screen_w_protease)” value under setting [17] is recorded as 0.9034.

Take `CNC(=O)c1cc2c(cn1)[nH]c1ccccc12` [N-Methyl-beta-carboline-3-carboxamide]: the mean under setting [13] was found to be 1.084. Under setting [14], this compound showed a Replicate_1 of 1.698. This compound also gave a Replicate_2 under setting [15] of 0.4701.

Compound `NC(=O)C1=CN([C@@H]2O[C@H](COP(=O)([O-])OP(=O)([O-])OC[C@H]3O[C@@H](n4cnc5c(N)ncnc54)[C@H](OP(=O)([O-])[O-])[C@@H]3O)[C@@H](O)[C@H]2O)C=CC1.[Na+].[Na+].[Na+].[Na+]` [NADPH tetrasodium] had a mean under setting [13] of 1.2074. Moreover, under setting [14], the Replicate_1 is reported as 1.812. Under setting [15], this compound gave a Replicate_2 of 0.6031.

For the compound `NCCS(=O)O` [Hypotaurine], the inhibition at 5 µM under setting [1] came out at 4.13% and the inhibition at 5 µM under setting [2] was -0.407%. Moreover, the “mean (LOPAC_screen_w_protease)” value under setting [3] is 1.861.

Consider `N#C/C(=C\c1ccc(O)c(O)c1)C(=O)NCCCNC(=O)/C(C#N)=C/c1ccc(O)c(O)c1` [Tyrphostin AG 537], for which the “mean (LOPAC_screen_w_protease)” value under setting [18] is 1.443. The “Replicate_1 (LOPAC_screen_w_protease)” value under setting [16] was determined as 1.008. The “Replicate_2 (LOPAC_screen_w_protease)” value under setting [17] amounted to 1.878.

In the case of `CC(C)C(=O)Nc1ccc([N+](=O)[O-])c(C(F)(F)F)c1` [Flutamide], the inhibition at 5 µM was 0.293% (sheet LOPAC_screen_w_protease, primary screen with protease, 5 µM, mean of two replicates, read-out: mean); 2.71% (sheet LOPAC_screen_w_protease, primary screen with protease, 5 µM, replicate 1, read-out: Replicate_1); -2.13% (sheet LOPAC_screen_w_protease, primary screen with protease, 5 µM, replicate 2, read-out: Replicate_2).

In turn, `C=CC[C@H](N)C(=O)O` [L-allylglycine] had a mean under setting [7] of 0.3305. Under setting [8], this compound displayed a Replicate_1 of -0.7105. The same compound had a Replicate_2 under setting [9] of 1.372.

Turning to `NCCCS(=O)(=O)O.[Na]` [3-Amino-1-propanesulfonic acid sodium], the mean (sheet LOPAC_screen_w_protease, LOPAC1280 primary screen with protease, 5 µM compound, mean of the two replicates) stood at 5.742. The same compound gave a Replicate_1 (sheet LOPAC_screen_w_protease, LOPAC1280 primary screen with protease, 5 µM compound, replicate 1) of 6.514. The compound further yielded a Replicate_2 (sheet LOPAC_screen_w_protease, LOPAC1280 primary screen with protease, 5 µM compound, replicate 2) of 4.97.

The compound `O=C(OCCN1CCOCC1)C1(c2ccccc2)CCCCC1` [PRE-084] came in with a mean under setting [19] of 3.777. This compound also yielded a Replicate_1 under setting [20] of 2.6752. Further, under setting [21], the Replicate_2 is on record as 4.879.

On to `CCC(=O)c1ccc2c(c1)N(CCCN(C)C)c1ccccc1S2` [Propionylpromazine hydrochloride], for which the inhibition at 5 µM reads like this: under setting [1], 2.15%; under setting [2], 0.621%. Also, the “mean (LOPAC_screen_w_protease)” value under setting [18] amounted to 1.386.

As to `CCCCc1oc2ccccc2c1C(=O)c1cc(I)c(OCCN(CC)CC)c(I)c1` [Amiodarone hydrochloride], the inhibition at 5 µM reads like this: (read-out: Replicate_1) 2.09%; (read-out: Replicate_2) 4.04%; (read-out: mean) 3.06%.

Under setting [4], `Cn1c(=O)c2c(nc(C=Cc3cccc(Cl)c3)n2C)n(C)c1=O` [8-(3-Chlorostyryl)caffeine] displayed a mean of 0.7326. The compound further yielded a Replicate_1 under setting [5] of 1.9699. This compound also yielded a Replicate_2 under setting [6] of -0.5047.

Compound `O=C(O)c1cc(=O)c2c(Cl)cc(Cl)cc2[nH]1` [5,7-Dichlorokynurenic acid] had a mean under setting [19] of 3.519. Under setting [20], this compound yielded a Replicate_1 of 3.053. Under setting [21], this compound registered a Replicate_2 of 3.985.

For `O=C(O)CCc1nc(-c2ccccc2)c(-c2ccccc2)o1` [Oxaprozin], the inhibition at 5 µM runs as follows: (read-out: Replicate_1) 3.59%; (read-out: Replicate_2) 3.25%; (read-out: mean) 3.42%.

Turning to `CC(=O)NNC(=O)N1Cc2ccccc2Oc2ccc(Cl)cc21` [SC 19220], the mean under setting [7] is 0.1868. In addition, the Replicate_1 under setting [8] stood at 1.1062. Also, under setting [9], the Replicate_2 is -0.7326.

For the compound `C=CCN1C[C@H](C)N([C@H](c2ccc(C(=O)N(CC)CC)cc2)c2cccc(OC)c2)C[C@H]1C` [SNC80], the Replicate_1 is given as -0.408, the Replicate_2 came out at 1.648 and the mean is on record as 0.6198.

In the case of `Cc1ccc(Cl)c(Nc2ccccc2C(=O)O)c1Cl` [Meclofenamic acid sodium], the inhibition at 5 µM (read-out: Replicate_1) turned out to be 1.45%, the inhibition at 5 µM (read-out: Replicate_2) was determined as 5.52% and the inhibition at 5 µM (read-out: mean) is 3.48%.

For the compound `COC(=O)C1=C(C)NC(C)=C([N+](=O)[O-])C1c1ccccc1C(F)(F)F` (racemic) [(±)-Bay K 8644], the mean under setting [10] is on record as 3.088. This compound came in with a Replicate_1 under setting [11] of 2.534. Under setting [12], this compound came in with a Replicate_2 of 3.642.

Turning to `CCCOC(=O)c1c(-c2ccccc2)nc(CC)c(C(=O)SCC)c1CCC` [MRS 1523], under setting [10], the mean turned out to be 2.972. Also, under setting [11], the Replicate_1 worked out at 3.943. This compound registered a Replicate_2 under setting [12] of 2.002.

In the case of `NC/C=C/C(=O)O` [(E)-4-amino-2-butenoic acid], under setting [18], the “mean (LOPAC_screen_w_protease)” value stood at 1.558. Under setting [16], the “Replicate_1 (LOPAC_screen_w_protease)” value is 1.878. Moreover, the “Replicate_2 (LOPAC_screen_w_protease)” value under setting [17] is listed as 1.238.

`CC1CCN(CC[C@H]2CCCN2S(=O)(=O)c2cccc(O)c2)CC1.Cl` [SB 269970 hydrochloride]: under setting [3], the “mean (LOPAC_screen_w_protease)” value amounted to 2.103. Under setting [16], the “Replicate_1 (LOPAC_screen_w_protease)” value was 1.356. Moreover, under setting [17], the “Replicate_2 (LOPAC_screen_w_protease)” value was found to be 2.851.

With `CN1CCC(=C2c3ccccc3CC(=O)c3sccc32)CC1` [Ketotifen fumarate], the inhibition at 5 µM (sheet LOPAC_screen_w_protease, primary screen of LOPAC1280 at 5 µM with protease, mean of the two replicates, read-out: mean) came to 3.16%; the inhibition at 5 µM (sheet LOPAC_screen_w_protease, primary screen of LOPAC1280 at 5 µM with protease, replicate 1, read-out: Replicate_1) worked out at 4.97%; the inhibition at 5 µM (sheet LOPAC_screen_w_protease, primary screen of LOPAC1280 at 5 µM with protease, replicate 2, read-out: Replicate_2) was 1.34%.

Regarding `CC(C)C[C@H](NC(=O)[C@@H](O)[C@H](N)Cc1ccccc1)C(=O)O` [Bestatin hydrochloride], the inhibition at 5 µM runs as follows: under setting [1], 1.1%; under setting [2], 3.15%. Under setting [3], the “mean (LOPAC_screen_w_protease)” value is 2.127.
